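All cell lines were grown in 96-well plates and treated with compound for 48 hours. The concentration for 50% growth inhibition is given as GI50.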 Calls of active or inactive are those of the source. No stated cut-off is given here; in the data, active = GI50 up to about 1.1 µM and inactive = higher.
Legend:
Assay in all cases: DTP human tumour cell line panel, 48 h
786-0 = tested on: 786-0
A498 = tested on: A498
A549 = tested on: A549
ACHN = tested on: ACHN
CAKI-1 = tested on: CAKI-1
CCRF-CEM = tested on: CCRF-CEM
COLO 205 = tested on: COLO 205
DMS-114 = tested on: DMS-114
DMS-273 = tested on: DMS-273
EKVX = tested on: EKVX
HCC 2998 = tested on: HCC 2998
HCT-116 = tested on: HCT-116
HCT-15 = tested on: HCT-15
HL-60 = tested on: HL-60
HOP-62 = tested on: HOP-62
HOP-92 = tested on: HOP-92
HT-29 = tested on: HT-29
IGROV-1 = tested on: IGROV-1
K562 = tested on: K562
KM-20L2 = tested on: KM-20L2
KM12 = tested on: KM12
LXFL 529 = tested on: LXFL 529
M14 = tested on: M14
M19-MEL = tested on: M19-MEL
MOLT-4 = tested on: MOLT-4
Malme-3M = tested on: Malme-3M
NCI-H226 = tested on: NCI-H226
NCI-H23 = tested on: NCI-H23
NCI-H460 = tested on: NCI-H460
NCI-H522 = tested on: NCI-H522
OVCAR-3 = tested on: OVCAR-3
OVCAR-4 = tested on: OVCAR-4
OVCAR-5 = tested on: OVCAR-5
OVCAR-8 = tested on: OVCAR-8
RPMI-8226 = tested on: RPMI-8226
RXF 393 = tested on: RXF 393
SF-268 = tested on: SF-268
SF-295 = tested on: SF-295
SF-539 = tested on: SF-539
SK-MEL-28 = tested on: SK-MEL-28
SK-MEL-2 = tested on: SK-MEL-2
SK-MEL-5 = tested on: SK-MEL-5
SK-OV-3 = tested on: SK-OV-3
SN12C = tested on: SN12C
SNB-19 = tested on: SNB-19
SNB-75 = tested on: SNB-75
SNB-78 = tested on: SNB-78
SW-620 = tested on: SW-620
TK-10 = tested on: TK-10
U-251 = tested on: U-251
UACC-257 = tested on: UACC-257
UACC-62 = tested on: UACC-62
XF498 = tested on: XF498

CN=S(=O)(C[C@]1(O)CC2OC1C1OC(C)(C)OC21)c1ccccc1 (stereo partly drawn)
GI50 (786-0): > 100 µM (inactive)
GI50 (A498): > 100 µM (inactive)
GI50 (A549): > 100 µM (inactive)
GI50 (ACHN): > 100 µM (inactive)
GI50 (CAKI-1): > 100 µM (inactive)
GI50 (CCRF-CEM): > 100 µM (inactive)
GI50 (COLO 205): > 100 µM (inactive)
GI50 (DMS-114): > 100 µM (inactive)
GI50 (DMS-273): > 100 µM (inactive)
GI50 (EKVX): > 100 µM (inactive)
GI50 (HCC 2998): > 100 µM (inactive)
GI50 (HCT-116): > 100 µM (inactive)
GI50 (HCT-15): > 100 µM
GI50 (HL-60): > 100 µM (inactive)
GI50 (HOP-62): > 100 µM (inactive)
GI50 (HOP-92): > 100 µM (inactive)
GI50 (HT-29): > 100 µM (inactive)
GI50 (IGROV-1): > 100 µM (inactive)
GI50 (K562): > 100 µM (inactive)
GI50 (KM-20L2): > 100 µM (inactive)
GI50 (KM12): > 100 µM (inactive)
GI50 (LXFL 529): > 100 µM (inactive)
GI50 (M14): > 100 µM (inactive)
GI50 (M19-MEL): > 100 µM (inactive)
GI50 (MOLT-4): > 100 µM (inactive)
GI50 (Malme-3M): > 100 µM (inactive)
GI50 (NCI-H226): > 100 µM (inactive)
GI50 (NCI-H23): > 100 µM (inactive)
GI50 (NCI-H460): > 100 µM (inactive)
GI50 (NCI-H522): > 100 µM (inactive)
GI50 (OVCAR-3): > 100 µM (inactive)
GI50 (OVCAR-4): > 100 µM (inactive)
GI50 (OVCAR-5): > 100 µM (inactive)
GI50 (OVCAR-8): > 100 µM (inactive)
GI50 (RPMI-8226): > 100 µM (inactive)
GI50 (RXF 393): > 100 µM (inactive)
GI50 (SF-268): > 100 µM (inactive)
GI50 (SF-295): > 100 µM (inactive)
GI50 (SF-539): > 100 µM (inactive)
GI50 (SK-MEL-28): > 100 µM (inactive)
GI50 (SK-MEL-2): > 100 µM (inactive)
GI50 (SK-MEL-5): > 100 µM (inactive)
GI50 (SK-OV-3): > 100 µM (inactive)
GI50 (SN12C): > 100 µM (inactive)
GI50 (SNB-19): > 100 µM (inactive)
GI50 (SNB-75): 83 µM (inactive)
GI50 (SNB-78): > 100 µM (inactive)
GI50 (SW-620): > 100 µM (inactive)
GI50 (TK-10): > 100 µM (inactive)
GI50 (U-251): > 100 µM (inactive)
GI50 (UACC-257): > 100 µM (inactive)
GI50 (UACC-62): > 100 µM (inactive)
GI50 (XF498): > 100 µM (inactive)

Reference: ChEMBL document CHEMBL1201862, “PubChem BioAssay data set” (2004)
